Details: basic group

Structure (SMILES) | pKa
Cc1ccccc1C(=NCCCCN(C)C)c1ccccc1C | 8.8
N[C@@H]1CCCC[C@@H]1N | 9.84
CC(C)CNC(C)C | 10.6
CCOC(=O)c1cnc2cc3c(cc2c1OCC)OCO3 | 4.09
c1ccc(CC2=NCCC2)cc1 | 6.9
C[C@H]1C[C@@H]2CCN1C2 | 10.6
O=P([O-])(O)C([NH2+]Cc1ccccn1)c1ccccc1O (configuration not stated) | 3.12
CNCCCCc1ccccc1 | 10.8
Cc1cnc2c(cc(C)c3cccnc32)c1C | 5.93
CC(=O)N(C)c1cccnc1 | 3.52
COc1cccc(OC)c1-c1nc2ncccc2[nH]1 | 4.85
CN1[C@@H]2CC[C@H]1[C@H](C(=O)[O-])[C@@H](O)C2 | 9.7
CN(C)c1ccc(/C=N/c2ncc3[nH+]c[nH]c3n2)cc1 | 3.82
CN(C)c1ncnc2nc[nH]c12 | 3.87
CCSC(=N)c1ccccc1 | 6.05
CCC(C)N(C)C (configuration not stated) | 10.4
C[Si](C)(C)OC1CN(C2CCCCC2)C1 | 9.02
c1c(CN2CC[NH2+]CC[NH2+]CC2)n[nH]c1CN1CCNCC[NH2+]CC1 | 6.08
Clc1cccc(-c2ccccn2)n1 | 3.7
O[C@H]1[C@H](O)[C@@H](n2cnc3ccccc32)OC[C@@H]1O | 3.92
CCOC(=O)CC(c1ccccc1)N(C)C (configuration not stated) | 7.66
Cc1ccnnc1C | 4.1

Structure (SMILES) | pKa
CCCCCCCCCCCCCCCC(=O)N[C@@H](Cc1c[nH]cn1)C(=O)[O-] | 6.2
Nc1cccc2cccc([N+](=O)[O-])c12 | 2.79
CC(=O)CCN1CCOCC1 | 6.66
CC(C)(C)NCCCCCCNC(C)(C)C | 11
COc1cc(C(N)=O)ccc1-c1nc2c(ncn2C)[nH]1 | 3.8
CC(C)n1c(N)nc2ccc(/C(=C\C(N)=O)c3cccc(F)c3F)cc21 | 6.7
[O-]c1cccnc1 | 8.6
CSc1cccc2ncccc12 | 4.5
O=[N+]([O-])c1ccc2cccnc2c1O | 1.94
C1CCN(N2CCCCC2)CC1 | 7.09
COc1ccc2c(c1)C([P+](c1ccccc1)(c1ccccc1)c1ccccc1)c1ccccc1-2 (configuration not stated) | 9.09
COCCNc1cccc(C)c1 | 4.29
CNCC(C)CNC | 10.6
CCCNCC[NH2+]CCC | 7.53
CC(=O)Nc1ccc2nc3ccccc3cc2c1 | 4.7
O=C(CCNCCC(=O)c1ccccc1)c1ccccc1 | 8.69
CN(C)/N=C(\N)CC[Si](C)(C)C | 10.2
C[N+](C)(C)CCOC(=O)/C=C/c1c[nH]cn1 | 4.6
Cn1cnc2c(N)nc[nH+]c21 | -0.59
c1ccc(-c2ccn[nH]2)nc1 | 4.46
OCCN1CC[NH2+]CC1 | 5.47
CC1CCCCN1C (configuration not stated) | 10.3

Structure (SMILES) | pKa
Nc1ccncc1N | 9.06
c1cnc2c(c1)ccc1c3c(cnc12)CCCC3 | 5.66
CC(C)NCC(=O)[O-] | 10.1
Nc1nc(N)nc([S-])n1 | 7.8
Cc1cccc(-n2nnnc2N)c1 | 1.08
O=C([O-])CNCCc1nnn[n-]1 | 9.23
CCC(N)CO (configuration not stated) | 9.53
Cc1ccc2ccccc2n1 | 5.69
Nc1ccc2nc3ccccc3cc2c1 | 5.88
Cn1cnc2cc(O)ccc21 | 6.1
COc1ccc(CN)cc1 | 9.67
COc1ccc(-c2cnc(-c3ccc(OC)cc3)o2)cc1 | 1.41
NCCc1ccc(Br)cc1 | 9.65
O=C(O)c1cccc[nH+]1 | -0.84
Nc1nc2cc3c(cc2[nH]1)CCCC3 | 7.69
Cc1nc2ncccc2[nH]1 | 4.6
CCC(=O)C1(c2cccc(O)c2)CCN(C)CC1 | 8.67
Cc1cc(N)ccc1-c1ccc(N)cc1C | 4.9
CSS/C(CCO)=C(/C)N(C=O)Cc1cnc(C)nc1N | 5.59
Cn1cnc2c(N=O)c(O)ccc21 | 3.31
Nc1ccc(-c2ncc(-c3ccc(Br)cc3)o2)cc1 | 2.8
c1ccc(-c2cccc(-c3ccccn3)n2)nc1 | 4.66

Structure (SMILES) | pKa
CCc1ccnnc1C | 4.03
CN(C)c1ccccc1 | 5.1
c1ccc2c(c1)[NH+]=C(c1ccncc1)[NH2+]2 | 1.96
COc1nc2ccccc2c2ccccc12 | 2.38
CNc1ccccn1 | 7.13
Cn1cnc2c([O-])nc(N)nc21 | 9.92
CCCCCCNCCC(=O)[O-] | 10.6
Nc1cccc2nc3ccccc3c(N)c12 | 11
Cc1cccc(CN)c1 | 9.37
CCn1cc(C#N)c(=O)c2ccccc21 | -1.55
OCCNCCO | 9.04
CCN1CCC[C@@H]1CNC(=O)c1c([O-])c(Cl)cc(Cl)c1OC | 9.12
[S-]c1ncnc2nc[nH]c12 | 7.74
c1c(CN2CCNCC[NH2+]CC2)n[nH]c1CN1CCNCCNCC1 | 10.5
COc1nc2ncncc2[nH]1 | 3.14
C=Cc1ccccn1 | 4.92
C/C(=C(/S)CCO)N(C=O)Cc1cnc(C)nc1N | 4.19
CC1=CN(C)CC1C (configuration not stated) | 9.6
Cn1c(CCl)nc2c(O)ccc(O)c21 | 4.03
CC(C)(C)c1ccccn1 | 5.72
Cc1cc([S-])[nH+]c([S-])n1 | 6.87

Source: the pKa sets of Baltruschat and Czodrowski (2020)
